According to US10471010B2, “Liposomal corticosteroids for treatment of inflammatory disorders in humans” (ENCELADUS PHARMACEUTICALS B.V., priority 2011, dated 2019):

Key:
[1] = test system: rats with adjuvant-induced arthritis; experiment: Rat adjuvant-induced arthritis, paw inflammation scores; type: in vivo, Lewis rats; details: for effect on the course of the disease: single injection, equal dose (10 mg/kg), 10 mg/kg
Description: Lewis rats were immunized subcutaneously at the tail base with heat-inactivated Mycobacterium tuberculosis in incomplete Freund's adjuvant. […] Assessment of the disease was performed by visually scoring paw inflammation severity, maximum score 4 per paw, and measuring disease-induced body weight loss. The therapeutic efficacy of liposomal prednisolone phosphate on these variables was compared with equal doses unencapsulated drug. Rats were treated when the average score >6 (at day 14 or 15 after disease induction).

[2] = potency of prednisolone set to 1; cited from earlier work

SMILES	average inflammation scores ([1]; 20 mg/kg daily for 7 days, day 15 until day 21, from average 6.5 on day 14)	effect of repeated daily treatment ([1]; repeated daily treatment)	effect on the course of the disease [1]	effect on the course of the disease ([1]; listed as free prednisolone)	potency ratio as compared to prednisolone [2]
C[C@]12C=CC(=O)C=C1CC[C@@H]1[C@@H]2[C@@H](O)C[C@@]2(C)[C@H]1CC[C@]2(O)C(=O)COP(=O)(O)O [Unencapsulated prednisolone phosphate, prednisolone phosphate]	around 5.0	short-lasting moderate effect	did not significantly alter the course of the disease	not effective	
CC(=O)OCC(=O)[C@@]1(O)CC[C@H]2[C@@H]3CCC4=CC(=O)CC[C@]4(C)[C@@]3(F)[C@@H](O)C[C@@]21C [fludrocortisone acetate]					3.5
C[C@]12C=CC(=O)C=C1CC[C@H]1[C@@H]3C[C@@H](O)[C@](O)(C(=O)CO)[C@@]3(C)C[C@H](O)[C@@]12F [triamcinolone]					1.25
